Experimental data reported in a flash point compilation (Sun et al. 2020).

SMILES	flash point [°C]
Nc1ccccc1 [Aniline]	70.00
CCCCCCCC(=O)O [Octanoic acid]	132.00
Cc1ccccc1 [Toluene]	4.40

Remark: another data set of the same source

flash point [°C]	SMILES
25.00	C=CC=CO[Si](C)(C)C [1-(Trimethylsiloxy)-1,3-butadiene]
42.00	CCCCCC#C[Si](C)(C)C [1-Heptynyltrimethylsilane]

Remark: another data set of the same source

SMILES	flash point [°C]
Cc1ccc(C)c(C)c1 [1,2,4-TRIMETHYL BENZENE]	45.5
CCc1ccccc1CC [1,2-Diethylbenzene]	57.2
COCCOC [1,2-Dimethoxyethane]	-1.6
NCCN [1,2-Ethanediamine]	38
Cc1cccc(C)c1 [1,3-Dimethylbenzene]	25.0
CCc1ccc(CC)cc1 [1,4-Diethylbenzene]	57
Cc1ccc(C)cc1 [1,4-Dimethylbenzene]	26
C=CC(C)(C)C [1-Butene, 3,3-dimethyl-]	-31.9
C=CC(C)CC (stereo unspecified) [1-Pentene, 3-methyl-]	-27.9
CCCS [1-Propanethiol]	-19.9
CCC(C)(C)C(=O)O [2,2-Dimethylbutyric acid]	79.0
Cc1ccc(O)c(C)c1 [2,4-Dimethylphenol]	95.0
Cc1cccc(C)c1O [2,6-Dimethylphenol]	85.0
CC(C)C(C)O (stereo unspecified) [2-Butanol, 3-methyl-]	26.0
CC=C(C)C [2-Butene, 2-methyl-]	-44.9
CCCCC(CC)CO (stereo unspecified) [2-Ethylhexanol]	73
CC(C)CO [2-Methyl-1-propanol]	29.2
Nc1ccccc1 [Aniline]	71.0
CNc1ccccc1 [Benzenamine, N-methyl-]	78
CCCCS [Butanethiol]	1.0

SMILES	flash point [°C]
NC1CCCC1 [Cyclopentanamine]	11.5
CCC1CCCC1 [Cyclopentane, ethyl-]	-0.0
CC(C)NC(C)C [Diisopropylamine]	-7.0
CNC [Dimethylamine]	-49.9
COCCO [Ethanol, 2-methoxy-]	39.0
CCCCCC#N [HEXANENITRILE]	47
CCCCCC#N [Hexanenitrile]	43.0
CN(C)c1ccccc1 [N,N-DIMETHYLANILINE]	62.0
CN(C)c1ccccc1 [N,N-Dimethylaniline]	75.0
CCCCCCCC(=O)O [Octanoic acid]	127.0
Oc1ccccc1 [PHENOL]	80
CCc1ccccc1O [Phenol, 2-ethyl-]	85.0
CCCOC(C)=O [Propyl acetate]	10.6
Cc1ccccn1 [Pyridine, 2-methyl-]	26.0
Cc1ccncc1 [Pyridine, 4-methyl-]	39.0
Cc1ccccc1 [TOLUENE]	4.0
Cc1ccccc1 [Toluene]	6.0
CCc1cccc(C)c1 [m-Ethyltoluene]	38.0
CCC(C)N (stereo unspecified) [sec-BUTYLAMINE]	-28.8

Second part, the compound after the results:

flash point [°C]	SMILES
81.0	NCCCCCCN [1,6-Hexanediamine]
43.0	CCC(C)CO (stereo unspecified) [1-Butanol, 2-methyl-]
125	CCCCCCCCCCCCO [1-DODECANOL]
67	C=CCCCCCCCCCC [1-DODECENE]
47.0	C=CCCCCCCCC [1-Decene]
-31	C=CCCCC [1-HEXENE]
50.5	CCCCCCCS [1-Heptanethiol]
-8.0	C=CCCCCC [1-Heptene]
27.0	CCCCCCN [1-Hexanamine]
32.5	CCCCCCS [1-Hexanethiol]
95	CCCCCCCCCO [1-NONANOL]
63.0	CCCCCCCCC=O [1-Nonanal]
96.0	CCCCCCCCCO [1-Nonanol]
-54	C=CCCC [1-PENTENE]
112.0	C=CCCCCCCCCCCCCC [1-Pentadecene]
50.0	CCCC(C)CO (stereo unspecified) [1-Pentanol, 2-methyl-]
115	CCCCCCCCCCCO [1-UNDECANOL]
113.0	CCCCCCCCCCCO [1-Undecanol]
46.2	CCCCC(C)O (stereo unspecified) [2-HEXANOL]
39.0	CCCCCC(C)=O [2-Heptanone]
45.0	CCCCC(C)O (stereo unspecified) [2-Hexanol]
27	CCC(O)CC [3-PENTANOL]
24.0	CCC(C)(O)CC [3-Pentanol, 3-methyl-]

flash point [°C]	SMILES
30.0	CCC(O)CC [3-Pentanol]
88.4	CCCCCC(=O)CCCCC [6-Undecanone]
37.0	CCCCCOC(C)=O [Amyl acetate]
52.5	CCCCC1CCCCC1 [Cyclohexane, butyl-]
148.0	CCCCCCCCCC(=O)O [Decanoic acid]
7.5	CCCNCCC [Dipropylamine]
90.0	CCOCCOCCO [Ethanol, 2-(2-ethoxyethoxy)-]
6.0	CCCCCC(C)C [Heptane, 2-methyl-]
23.0	CCCCC(CC)CC [Heptane, 3-ethyl-]
115.0	CCCCCCC(=O)O [Heptanoic acid]
5	CCCC(CC)CC [Hexane, 3-ethyl-]
110.0	CCCCC(CC)C(=O)O (stereo unspecified) [Hexanoicacid, 2-ethyl-]
46.0	CCCCCCC(C)CC (stereo unspecified) [Nonane, 3-methyl-]
44.0	CCCCCC(C)CCC (stereo unspecified) [Nonane, 4-methyl-]
39	CCCCC(C)CCCC [Nonane, 5-methyl-]
51.0	CCCCCCCC=O [Octanal]
23.0	CCCCC(C)CCC (stereo unspecified) [Octane, 4-methyl-]
14.0	CCCCCCCC [Octane]
-19.9	CCCOCC [Propane, 1-ethoxy-]
-15.0	CCN(CC)CC [TRIETHYLAMINE]
90.0	CCCCCCCCCCCCC [Tridecane]
-11.0	CCN(CC)CC [Triethylamine]
-18.9	CCC(C)N (stereo unspecified) [sec-Butylamine]

Remark: another data set of the same source

flash point [°C]	SMILES
49.00	C[Si](C)(C)c1ccc(Cl)cc1 [p-Chlorophenyltrimethylsilane]
30.00	CCCC(C)[Si](Cl)(Cl)Cl (stereo unspecified) [sec-Amyltrichlorosilane]
22.00	CC(C)(C)[Si](C)(C)Cl [t-Butyldimethylchlorosilane]
45.00	CC(C)(C)[Si](C)(C)O [t-Butyldimethylsilanol]
21.00	CC(C)(C)[Si](Cl)(Cl)Cl [t-Butyltrichlorosilane]

SMILES	flash point [°C]
CC(C)(C)O[Si](C)(C)C [t-Butoxytrimethylsilane]	14.00
